Data taken from patent US8859529B2, “Compounds for the treatment of inflammatory disorders” (Merck Sharp & Dohme Corp., priority 2008, dated 2014).

Experiments:
[1] = Area under the curve determinations of plasma levels in rats (rrAUC); format: in vivo; details: rapid rat AUC of the drug (parent) in plasma; oral 10 mg/kg, fasted rats, blood 0.5-6 h post-dosing
Procedure: To gain insight into the pharmacokinetic properties of the compounds of formula (I), plasma levels of the compounds in rats were determined according to the protocol described in Korfmacher, W. A,; Cox, K. A.; Ng, K. J.; Veals, J.; Hsieh, Y.; Wainhaus, S.; Broske, L; Prelusky, D.; Nomeir, A.; White, R. E. Rapid Commun. Mass Spectrorn, 2001, 15, 335. Briefly, rats, after an overnight fast, were dosed orally with the test compound at a dose of 10 mg/kg in a 5 mL/kg dose volume. Blood was collected at 0.5, 1, 2, 3, 4, and 6 h post-dosing. Mass spectrometry using high performance liquid chromatography was used to identify and measure the concentrations of the test compounds in the plasma at the various time points. The parent ion of each test compound was used to identify and quantitate the compounds in plasma.

[2] = test system: TNF-α production from human whole blood; test: Inhibition of TNF-α production from human whole blood (hWBA); format: cell-based; details: human whole blood diluted 1:1, 1 h pre-incubation, LPS, 3.5 h, TNF-α by ELISA; N/A = Not Active
Procedure: The compounds' ability to inhibit TACE activity can also be determined in human whole blood using the assay conditions described n Example 15 below.
Human whole blood was diluted 1:1 with serum free medium (RPMI, L-glutamine, Pen-Strep, HEPES) and incubated with a test compound in a final volume of 360 μl for 1 h at 37° C. Forty microliters of LPS (10 μg/mL) was then added. Supernatant was collected after 3.5 h incubation and the concentration of TNF-α was determined by ELISA (R&D Systems). The concentration of the test compound which inhibits 50% of the amount of TNF-α from the untreated control was determined.

| Compound | PK (rrAUC) parent [1] [µM·h] | IC50 [2] [nM] |
| --- | --- | --- |
| COc1ccc2c(c1F)C(=O)N(C[C@@]1(c3cc4ncc(C(N)=O)cc4o3)NC(=O)N(COC(=O)C(C)(C)C)C1=O)C2 [Compound 19] | 0.094 | 101 |
| COc1ccc2c(c1F)C(=O)N(C[C@@]1(C#Cc3ccc4c(=O)[nH][nH]c4c3)NC(=O)N(COC(=O)C(C)(C)C)C1=O)C2 [Compound 14] | 0 | 275 |
| COc1ccc2c(c1F)C(=O)N(C[C@@]1(c3cc4nc(N5CCNC(=O)C5)ccc4o3)NC(=O)N(COC(=O)C(C)(C)C)C1=O)C2 [Compound 5] | 0.121 | 104 |
| COc1ccc2c(c1F)C(=O)N(C[C@@]1(c3cc4nc(-c5cn[nH]c5)ccc4o3)NC(=O)N(COC(=O)C(C)(C)C)C1=O)C2 [Compound 16] | 0.249 | 141 |
| COc1ccc2c(c1F)C(=O)N(C[C@@]1(c3cc4c(C)nccc4o3)NC(=O)N(COC(=O)C(C)(C)C)C1=O)C2 [Compound 11] | 1.827 | 235 |
| COc1ccc2c(c1F)C(=O)N(C[C@@]1(c3cc4cc(-c5cc(=O)[nH]c(N)n5)ccc4o3)NC(=O)N(COC(=O)C(C)(C)C)C1=O)C2 [Compound 29] | 0 | 199 |
| COc1ccc2c(c1)C(=O)N(C[C@@]1(c3cc4nc(-c5c(C)nn(C)c5C)ccc4o3)NC(=O)N(COC(=O)C(C)(C)C)C1=O)C2 [Compound 17] | 2.005 | 626 |
| COc1ccc2c(c1)C(=O)N(C[C@@]1(c3cc4cc(-c5cc(=O)[nH]c(N)n5)cnc4o3)NC(=O)N(COC(=O)C(C)(C)C)C1=O)C2 [Compound 33] | 0 | 375 |
| COc1ccc2c(c1)C(=O)N(C[C@@]1(c3cc4cc(-c5cc(=O)[nH]c(N)n5)ccc4o3)NC(=O)N(COC(=O)C(C)(C)C)C1=O)C2 [Compound 27] | 0 | 940 |
| COc1ccc2c(c1F)C(=O)N(C[C@@]1(c3cc4nc(N)ccc4o3)NC(=O)N(COC(=O)C(C)(C)C)C1=O)C2 [Compound 18] | 0.351 | 178 |
| COc1ccc2c(c1F)C(=O)N(C[C@@]1(c3cc4c(OC(C)=O)nccc4o3)NC(=O)N(COC(=O)C(C)(C)C)C1=O)C2 [Compound 22] | 0.823 | 2820 |
| COc1ccc2c(c1)C(=O)N(C[C@@]1(c3cc4nc(N5CCCNC5=O)ccc4o3)NC(=O)N(COC(=O)C(C)(C)C)C1=O)C2 [Compound 20] | 0.148 | 282 |

Further lines, results first:

| PK (rrAUC) parent [1] [µM·h] | IC50 [2] [nM] | Compound |
| --- | --- | --- |
| 0.37 | 7150 | COc1ccc2c(c1)C(=O)N(C[C@@]1(c3cc4ncccc4o3)NC(=O)N(C(C)C)C1=O)C2 [Compound 51] |
| 0.056 | 5410 | COc1ccc2c(c1)C(=O)N(C[C@]1(c3cc4cnccc4o3)C(=O)N(COC(=O)OCC3COCO3)C(=O)N1C(=O)OCC1COCO1)C2 (some centres unmarked) [Compound 86] |
| 4.316 | 244 | COc1ccc2c(c1)C(=O)N(C[C@@]1(c3cc4cnccc4o3)NC(=O)N(COC(=O)[C@H](N)C(C)C)C1=O)C2 [Compound 35.3] |
| 13.539 | 1400 | COc1ccc2c(c1)C(=O)N(C[C@@]1(c3cc4cnccc4o3)NC(=O)N(COC(=O)OC3CCN(C)CC3)C1=O)C2 [Compound 63.3] |
| 0.927 | 241 | CCOc1ccc2c(c1F)C(=O)N(C[C@@]1(c3cc4nc(N5CCN(CC)CC5)ccc4o3)NC(=O)N(COC(=O)C(C)(C)C)C1=O)C2 [Compound 39] |
| 0 | 171 | COc1ccc2c(c1F)C(=O)N(C[C@@]1(C#Cc3cncc(NC(=O)C4CCN(C)CC4)c3)NC(=O)N(COC(=O)C(C)(C)C)C1=O)C2 [Compound 36] |
| 13.539 | 184 | COc1ccc2c(c1)C(=O)N(C[C@@]1(c3cc4cnccc4o3)NC(=O)N(COC(=O)OC3CCOCC3)C1=O)C2 [Compound 59] |
